Assays:
VEGF = VEGF ELISA on snap frozen mouse wounds; assay type: in vivo, mice; conditions: same mouse wounds, FIG. 14
Protocol: Amount of VEGF in snap frozen mouse wounds was analyzed using VEGF ELISA as per manufacturer's instructions. Up to 8 wounds were utilized per condition in duplicates and amount of VEGF quantified using internal standards provided by the kit.
ELISA was used to measure levels of VEGF from the same wounds in order to validate that the upregulation at the mRNA level coincides with increased VEGF protein level.

MRSA USA300 = experiment: In vitro MRSA internalization in human keratinocytes; assay type: cell-based, MRSA USA300 in primary human keratinocytes
Protocol: For all internalization assays, MRSA USA300 strain was used. In vitro pathogen internalization: Primary human keratinocytes were seeded at 5×10^4 in triplicates and allowed to adhere overnight. The following day, they were inoculated with MRSA USA300 conjugated to a pH sensitive dye (pHrodo iFL STP ester, Life Technologies) at 1×10^6 CFU/ml for 1 hr in presence or absence of 1 mM MβCD, prior to washing with PBS. They were then either subject to live cell imaging or washed with lysostaphin for 1 hr (in order to kill any extracellular bacteria), lysed in hypotonic solution and seeded onto blood agar plates in serial dilutions in order to determine relative CFU counts. Ex vivo human skin: Human skin specimens from reduction surgery were obtained and wounded. Briefly, using a biopsy punch 4-mm acute wounds were made in the skin specimens (n=4 per treatment), and either pre-treated in presence or absence of 2 mM MβCD, followed by inoculation with 10 ul of MRSA 10^8 CFU/ml for 24 hrs. Skin was then washed with PBS, incubated with lysostaphin for Ihr in order to kill any extracellular bacteria, lysed with hypotonic solution and subsequent lysate seeded onto blood agar plates in serial dilutions. […]

[1] = tested on: 5-mm round excisional dorsal wounds of db/db mice; experiment: Splinted excisional wound healing in db/db mice treated with hydrogel scaffolds; assay type: in vivo; conditions: FIG. 10
Protocol: All animal care and use procedures were approved by the University of Miami Institutional Animal Care and Use Committee (IACUC #19-097). Under anesthesia, 12×7-weeks of age female db/db mice had their dorsal skin hair clipped, depilated and their fasting blood glucose level measured for 3 consecutive days, to validate hyperglycemia (>300 mg/dL was deemed as hyperglycemic). Subsequently, mice's dorsal skin was cleaned with antiseptic solution and four 5-mm round excisional wounds were made, two on each side of the dorsal midline (n=8 wounds per treatment). Dorsal wounds were treated with cylindrical hydrogel scaffolds of 8 mm×2 mm for either 7 or 16 days. Same hydrogel scaffold fabrication procedure was employed (as previously described) and with the same treatment and control formulations as the ex vivo human skin wound models. Scaffolds were fixed on top of the wounds with 14-mm square splints containing a 10 mm circular central opening. Cyanoacrylate glue was used to secure the splints just long enough for 4 non-continuous sutures to adhere the […] to the wound and prevent wound contraction. […] Diabetic mice wounds' closure rate was assessed by histologically analyzing re-epithelialization and epidermal thickness through H&E staining with an Olympus VS120 microscope (Olympus, Tokyo, JPN) and Image J software (NIH, MD, USA). […]

## hydroxypropyl-β-cyclodextrin [HβCD]
VEGF
  levels of VEGF: increased levels of VEGF

## methyl-β-cyclodextrin [MβCD]
MRSA USA300; Cav1 overexpressing and Cav1 knockout human keratinocytes, cell lysate on blood agar plates
  CFU counts of internalized bacteria: lowered the CFU counts
MRSA USA300; treatment administered after MRSA infection, keratinocytes
  intracellular MRSA: expelled a majority of intracellular MRSA

## platelet derived growth factor [PDGF]
[1]
  wound closure at the conclusion of the experiment: not fully closed

Source: patent US20250367164A1, “THERAPEUTIC COMPOSITIONS FOR SKIN DISORDERS AND WOUND REPAIR” (UNIVERSITY OF MIAMI, priority 2022, published 2025)
